Paper PMC7473772 (eLife, 2020)
Residue numbers refer to the chain shown, from its start. Several values for one entry are separate records, joined by “and”; a condition that tells them apart may be missing. Equal values may be shown once. Read-outs that look alike come from different tables or passages of the source.

Assays:
[1] = test system: tbaqp1-2-3 null cells expressing TbAQP2WT; experiment: Drug sensitivity assay (resazurin), pentamidine and SHAM; type: cell-based, Trypanosoma brucei brucei; details: Trypanosoma brucei, +AQP2 W.T in aqp1-3 triple KO; 3 repeats; read-out: Alamar blue EC50, MEAN
[2] = biological target: T1, aqp1/aqp2/aqp3 null cells expressing TbAQP2-WT (Trypanosoma brucei brucei, UniProt Q6ZXT3); experiment: Inhibition of [3H]-pentamidine uptake (dose response); type: cell-based; details: zero inhibitor point 0.01011
T1 sequence (Q6ZXT3 1-312): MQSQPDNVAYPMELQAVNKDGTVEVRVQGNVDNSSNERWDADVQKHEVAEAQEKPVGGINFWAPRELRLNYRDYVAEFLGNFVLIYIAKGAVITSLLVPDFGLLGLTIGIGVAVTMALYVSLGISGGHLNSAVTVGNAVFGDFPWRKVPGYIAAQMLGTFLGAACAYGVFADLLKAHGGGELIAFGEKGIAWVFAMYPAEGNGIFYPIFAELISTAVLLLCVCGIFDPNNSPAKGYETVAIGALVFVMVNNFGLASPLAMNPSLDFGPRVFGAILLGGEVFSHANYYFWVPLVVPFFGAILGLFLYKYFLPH

[3] = test system: tbaqp2/tbaqp3 null cells expressing TbAQP2^L84W/L118W; experiment: Drug sensitivity assay (resazurin); type: cell-based, Trypanosoma brucei brucei; details: Fig. 4A, L84W/L118W in aqp2/aqp3 null, read-out: Alamar blue EC50, single repeats
TbAQP2^I190T/W192G = TbAQP2^I190T/W192G (Trypanosoma brucei brucei, UniProt Q6ZXT3, I190T/W192G); type: cell-based; details: Fig. 3A, exp AQP016-AQP023; AQP2 mutant I190T/W192G
Sequence of TbAQP2^I190T/W192G (Q6ZXT3 whole entry I190T/W192G): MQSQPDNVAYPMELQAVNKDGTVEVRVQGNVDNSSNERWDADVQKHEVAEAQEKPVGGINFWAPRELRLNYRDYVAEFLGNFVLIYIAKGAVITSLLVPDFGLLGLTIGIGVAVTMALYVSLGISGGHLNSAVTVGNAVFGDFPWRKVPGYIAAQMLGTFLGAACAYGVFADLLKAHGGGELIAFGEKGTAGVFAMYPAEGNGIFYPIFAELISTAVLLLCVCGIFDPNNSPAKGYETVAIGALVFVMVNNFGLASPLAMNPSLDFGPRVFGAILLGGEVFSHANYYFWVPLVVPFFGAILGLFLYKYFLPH

[4] = biological target: T1, aqp1/aqp2/aqp3 null cells expressing TbAQP2-WT; experiment: Inhibition of [3H]-glycerol uptake; type: cell-based; details: for glycerol uptake: zero inhibitor point 0.002246
TbAQP2^I190T [5] = experiment: cell-based; parameters: species or system Trypanosoma brucei brucei; details: TbAQP2^I190T cells; read-out: Km of lower affinity segment (LAPT1)
TbAQP2^I190T [6] = biological target: T2, TbAQP2^I190T (Trypanosoma brucei brucei, UniProt Q6ZXT3, I190T); experiment: cell-based
T2 sequence (Q6ZXT3 1-312 I190T): T1 sequence (Q6ZXT3 1-312) with I190T

TbAQP3^W102I/R256L = TbAQP3^W102I/R256L (Trypanosoma brucei brucei, UniProt Q6ZXT2, R256L/W102I); experiment: [3H]-pentamidine transport; type: cell-based; details: AQP3 W102I/R256L; over 30 minutes
Sequence of TbAQP3^W102I/R256L (Q6ZXT2 whole entry W102I/R256L): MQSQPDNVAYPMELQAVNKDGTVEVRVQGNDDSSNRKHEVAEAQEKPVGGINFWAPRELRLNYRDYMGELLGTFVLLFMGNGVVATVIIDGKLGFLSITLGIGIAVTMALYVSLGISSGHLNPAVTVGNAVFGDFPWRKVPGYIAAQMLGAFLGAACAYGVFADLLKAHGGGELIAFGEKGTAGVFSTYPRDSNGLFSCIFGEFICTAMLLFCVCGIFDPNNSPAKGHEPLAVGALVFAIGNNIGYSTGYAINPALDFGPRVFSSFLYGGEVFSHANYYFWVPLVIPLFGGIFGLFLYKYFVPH

TbAQP3 = TbAQP3 (Trypanosoma brucei brucei, UniProt Q6ZXT2); type: cell-based
Sequence of TbAQP3 (Q6ZXT2 whole entry): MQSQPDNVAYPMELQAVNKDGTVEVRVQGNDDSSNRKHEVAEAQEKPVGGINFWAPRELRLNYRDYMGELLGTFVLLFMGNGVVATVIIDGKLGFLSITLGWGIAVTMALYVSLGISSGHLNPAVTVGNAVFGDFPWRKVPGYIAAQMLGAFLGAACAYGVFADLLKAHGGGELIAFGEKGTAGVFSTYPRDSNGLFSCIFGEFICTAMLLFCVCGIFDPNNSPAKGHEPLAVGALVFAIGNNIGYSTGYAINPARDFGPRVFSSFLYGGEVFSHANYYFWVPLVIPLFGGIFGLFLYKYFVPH

TbAQP2/HAPT1 [7] = biological target: T3, TbAQP2/HAPT1 (Trypanosoma brucei brucei, UniProt Q6ZXT3); details: cited from earlier work
TbAQP3^W102I/R256L/Y250L = TbAQP3^W102I/R256L/Y250L (Trypanosoma brucei brucei, UniProt Q6ZXT2, R256L/W102I/Y250L); experiment: [3H]-pentamidine transport; type: cell-based; details: AQP3 W102I/R256L/Y250L; over 30 minutes
Sequence of TbAQP3^W102I/R256L/Y250L (Q6ZXT2 whole entry W102I/Y250L/R256L): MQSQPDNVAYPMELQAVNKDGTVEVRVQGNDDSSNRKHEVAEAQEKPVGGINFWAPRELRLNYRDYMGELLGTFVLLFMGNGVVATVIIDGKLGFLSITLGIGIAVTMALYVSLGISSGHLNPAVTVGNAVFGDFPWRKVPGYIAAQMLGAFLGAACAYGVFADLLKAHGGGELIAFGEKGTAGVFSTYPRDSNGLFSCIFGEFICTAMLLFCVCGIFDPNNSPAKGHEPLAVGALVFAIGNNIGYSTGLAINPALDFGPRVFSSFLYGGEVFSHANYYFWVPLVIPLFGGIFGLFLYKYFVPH

TbAQP2/HAPT1 [8] = biological target: T3, TbAQP2/HAPT1; experiment: cell-based; type: cell-based
[9] = test system: tbaqp2/tbaqp3 null cells expressing TbAQP2^W192G; type: cell-based, Trypanosoma brucei brucei
TbAQP2 L118M = TbAQP2 L118M (Trypanosoma brucei brucei, UniProt Q6ZXT3, L118M); experiment: [3H]-pentamidine transport; type: cell-based; details: AQP2 mutant L118M
Sequence of TbAQP2 L118M (Q6ZXT3 whole entry L118M): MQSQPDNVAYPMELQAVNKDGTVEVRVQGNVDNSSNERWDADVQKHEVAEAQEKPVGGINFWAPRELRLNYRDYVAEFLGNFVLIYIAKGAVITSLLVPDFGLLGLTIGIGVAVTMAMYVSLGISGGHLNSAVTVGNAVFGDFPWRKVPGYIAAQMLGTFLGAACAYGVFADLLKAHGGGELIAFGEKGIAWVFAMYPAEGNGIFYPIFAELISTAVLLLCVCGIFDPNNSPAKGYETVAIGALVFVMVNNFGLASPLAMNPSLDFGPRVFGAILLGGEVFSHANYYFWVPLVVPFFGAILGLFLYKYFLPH

TbAQP2^S131P/S263A = TbAQP2^S131P/S263A (Trypanosoma brucei brucei, UniProt Q6ZXT3, S131P/S263A); experiment: [3H]-pentamidine transport; type: cell-based; details: 30 nM [3H]-pentamidine
Sequence of TbAQP2^S131P/S263A (Q6ZXT3 whole entry S131P/S263A): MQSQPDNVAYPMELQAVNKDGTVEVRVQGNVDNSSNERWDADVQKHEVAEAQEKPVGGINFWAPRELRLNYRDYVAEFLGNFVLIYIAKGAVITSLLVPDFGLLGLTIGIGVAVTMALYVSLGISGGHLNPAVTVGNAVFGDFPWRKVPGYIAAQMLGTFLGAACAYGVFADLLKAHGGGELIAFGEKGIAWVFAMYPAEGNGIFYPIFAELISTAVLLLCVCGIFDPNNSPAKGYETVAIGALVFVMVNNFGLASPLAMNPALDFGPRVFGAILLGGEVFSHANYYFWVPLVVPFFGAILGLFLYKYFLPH

T. b. brucei 2T1 = type: cell-based, Trypanosoma brucei brucei
[10] = test system: tbaqp2/tbaqp3 null cells expressing TbAQP2 L118M; experiment: microbe, parasite or virus in culture; type: cell-based, Trypanosoma brucei brucei
[11] = test system: tbaqp2/tbaqp3 null cells expressing TbAQP3; type: cell-based, Trypanosoma brucei brucei
TbAQP2 L218M = TbAQP2 L218M (Trypanosoma brucei brucei, UniProt Q6ZXT3, L218M); experiment: [3H]-pentamidine transport; type: cell-based; details: AQP2 mutant L218M; n=3
Sequence of TbAQP2 L218M (Q6ZXT3 whole entry L218M): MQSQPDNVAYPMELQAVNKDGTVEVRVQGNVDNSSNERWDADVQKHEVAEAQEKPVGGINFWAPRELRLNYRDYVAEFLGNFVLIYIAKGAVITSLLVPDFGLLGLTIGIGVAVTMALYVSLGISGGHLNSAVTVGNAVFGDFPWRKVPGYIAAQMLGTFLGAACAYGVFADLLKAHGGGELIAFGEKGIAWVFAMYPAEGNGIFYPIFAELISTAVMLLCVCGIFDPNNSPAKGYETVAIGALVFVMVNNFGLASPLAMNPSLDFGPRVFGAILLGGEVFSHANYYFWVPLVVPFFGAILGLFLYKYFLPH

TbAQP2^L258Y = TbAQP2^L258Y (Trypanosoma brucei brucei, UniProt Q6ZXT3, L258Y); experiment: [3H]-pentamidine transport; type: cell-based; details: 30 nM [3H]-pentamidine
Sequence of TbAQP2^L258Y (Q6ZXT3 whole entry L258Y): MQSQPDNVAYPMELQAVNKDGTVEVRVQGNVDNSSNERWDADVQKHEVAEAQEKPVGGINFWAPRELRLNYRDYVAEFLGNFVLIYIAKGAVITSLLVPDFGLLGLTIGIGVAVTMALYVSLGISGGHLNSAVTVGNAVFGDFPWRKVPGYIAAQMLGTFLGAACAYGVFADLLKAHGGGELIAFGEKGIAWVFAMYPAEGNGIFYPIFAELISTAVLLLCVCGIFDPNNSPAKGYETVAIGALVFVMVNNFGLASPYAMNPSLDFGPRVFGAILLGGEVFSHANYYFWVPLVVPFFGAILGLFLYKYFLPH

[12] = Fig. 3A, exp AQP038-AQP041, AQP2 mutant I190T

`N=C(N)c1ccc(OCCCCCOc2ccc(C(=N)N)cc2)cc1` [Pentamidine] showed an EC50 [1] of 1.1 nM, a pentamidine uptake ([2]; log[inhibitor] -3.60) of -1.5e-19 and a pentamidine uptake ([2]; log[inhibitor] -6.48) of 0.001052. For the same compound, the pentamidine uptake ([2]; log[inhibitor] -7.00) was 0.005102, the pentamidine uptake ([2]; log[inhibitor] -7.52) was 0.006394 and the pentamidine uptake ([2]; log[inhibitor] -8.00) was 0.007854. The pentamidine uptake ([2]; log[inhibitor] -8.48) was 0.008733, the pentamidine uptake ([2]; log[inhibitor] -9.00) was 0.008545 and the pentamidine uptake ([2]; log[inhibitor] -9.48) was 0.009352. The EC50 [3] was 65.7 nM, the EC50 ([3]; Trypanosoma brucei) was 53.4 nM and the “Pentamidine transport rate as percent of +AQP2-WT, AVG” value (TbAQP2^I190T/W192G) was 2.70%. For the same compound, the “Pentamidine transport rate, AVG” value (TbAQP2^I190T/W192G) was 0.0005659 pmol/10E7 cells/s, the EC50 [4] was 27.5 nM and the glycerol uptake ([4]; log[inhibitor] -3.60) was 6.78e-20. For the same compound, the glycerol uptake ([4]; log[inhibitor] -6.48) was 0.000111, the glycerol uptake ([4]; log[inhibitor] -7.00) was 0.000765 and the glycerol uptake ([4]; log[inhibitor] -7.52) was 0.00147. The glycerol uptake ([4]; log[inhibitor] -8.00) was 0.002105, the glycerol uptake ([4]; log[inhibitor] -8.48) was 0.002143 and the glycerol uptake ([4]; log[inhibitor] -9.00) was 0.002263. For the same compound, the glycerol uptake ([4]; log[inhibitor] -9.48) was 0.002177, the Km (TbAQP2^I190T [5]) was 59.9 ± 9.1 µM and the IC50 (TbAQP2^I190T [6]) was 30.9 ± 12.2 nM. For the same compound, the “Pentamidine transport rate as percent of +AQP2-WT, AVG” value (TbAQP2^I190T [6]; [12]) was 2.728%, the “Pentamidine transport rate, AVG” value (TbAQP2^I190T [6]; [12]) was 0.0008657 pmol/10E7 cells/s and the “Pentamidine transport rate, single experiments” value (TbAQP2^I190T [6]; [12]) was 0.0007167 pmol/10E7 cells/s and 0.001156 pmol/10E7 cells/s and 0.0009528 pmol/10E7 cells/s and 0.0006372 pmol/10E7 cells/s. For the same compound, the Pentamidine transport rate (TbAQP3^W102I/R256L) was 1.51E-04 pmol/10E7 cells/s, the Pentamidine transport rate (TbAQP3) was 1.04E-04 pmol/10E7 cells/s and the “Pentamidine transport rate, percent of TbAQP2WT control” value (TbAQP3) was 0.49%. For the same compound, the “Transport rate AVG” value (TbAQP3) was 0.48, the “Gibbs free energy of pentamidine/AQP2 interaction” value (TbAQP2/HAPT1 [7]) was -10 kcal/mol and the Pentamidine transport rate (TbAQP3^W102I/R256L/Y250L) was 2.46E-04 pmol/10E7 cells/s. The ΔG0 (TbAQP2/HAPT1 [8]) was -10.2 kcal/mol, the “ΔG^0 (binding energy of substrate-transporter pair)” value (TbAQP2/HAPT1 [8]) was -10.2 kcal/mol and the “δ(ΔG0)” value (TbAQP2/HAPT1 [8]) was 0 kcal/mol. For the same compound, the Ki (TbAQP2/HAPT1 [8]; Ki) was 36 ± 0.6 nM, the Ki (TbAQP2/HAPT1 [8]; Ki / affinity) was 35 nM and the “EC50 as percent of AQP2/3 null EC50, MEAN” value [9] was 8.08%. For the same compound, the “Pentamidine transport rate AVG” value (TbAQP2 L118M; n=3) was 0.0006601 pmol/10E7 cells/s, the Pentamidine transport rate (TbAQP2 L118M; single experiments) was 0.000589 pmol/10E7 cells/s and 0.000736 pmol/10E7 cells/s and 0.0006552 pmol/10E7 cells/s and the Pentamidine transport rate (TbAQP2^S131P/S263A) was 0.00111 pmol/10E7 cells/s. For the same compound, the “Transport rate AVG” value (T. b. brucei 2T1) was 21.86, the EC50 ([10]; Trypanosoma brucei, read-out: Alamar blue EC50, MEAN) was 34.2 nM and the EC50 ([10]; Trypanosoma brucei, read-out: Alamar blue EC50, single repeats) was 39 nM. The EC50 ([10]; Trypanosoma brucei, read-out: EC50 AVG) was 34.2 nM, the EC50 ([10]; read-out: Alamar blue EC50, single repeats) was 39.5 nM and 24.2 nM and the “EC50 as percent of AQP2/3 null EC50, MEAN” value [11] was 105.70%. The “Pentamidine transport rate AVG” value (TbAQP2 L218M) was 0.004612 pmol/10E7 cells/s and the Pentamidine transport rate (TbAQP2^L258Y) was 0.0004 pmol/10E7 cells/s.
